Results reported in ChEMBL document CHEMBL3856263, “Sesquiterpenes from the roots of Lindera strychnifolia with inhibitory effects on nitric oxide production in RAW 264.7 cells” (Bioorg Med Chem Lett, 2016).

How the values were obtained:
[1] = Antiinflammatory activity against LPS-induced mouse RAW264.7 cells assessed as inhibition of NO production pretreated for 1 hr followed by LPS stimulation for 24 hrs by Griess assay; format: functional, cell-based
[2] = organism: Mus musculus; test: Cytotoxicity against mouse RAW264.7 cells at <25 uM by MTT assay; format: toxicity, cell-based

| IC50 [1] [µM] | Compound | Activity [2] |
| --- | --- | --- |
| 21.6 | C=C1[C@H]2C[C@H]2[C@]2(C)C[C@@]3(O)OC(=O)C(C)=C3[C@H](OC)[C@H]12 | Non-Toxic |
|  | C=C1[C@H]2C[C@H]2[C@]2(C)C[C@@]3(O)OC(=O)C(C)=C3[C@H](OC(C)=O)[C@H]12 | Non-Toxic |
| 22.5 | CC1=C2C(=O)[C@@H]3[C@](C)(O)[C@H]4C[C@H]4[C@@]3(C)C[C@H]2OC1=O | Non-Toxic |
| > 25 | CC1=C2[C@@H]3OC(=O)[C@@]4(CC/C=C(\C)C[C@@]2(O)OC1=O)O[C@@H]34 | Non-Toxic |
| > 25 | Cc1coc2c1[C@H]1C=C(CC[C@@H]3O[C@@]3(C)C2)C(=O)O1 [PSEUDONEOLINDERANE] | Non-Toxic |
| 14.6 | CC1=C2[C@H](O)[C@@H]3[C@@](C)(O)[C@H]4C[C@H]4[C@]3(C)C[C@]2(O)OC1=O | Non-Toxic |
| > 25 | C=C1CC=C[C@@]2(C)C[C@@]3(O)OC(=O)C(C)=C3C[C@H]12 | Non-Toxic |
| 12.3 | C=C1[C@H]2C[C@H]2[C@]2(C)C[C@H]3OC(=O)C(C)=C3[C@H](O)[C@H]12 | Non-Toxic |
|  | C=C1[C@H]2C[C@H]2[C@]2(C)C[C@]3(O)OC(=O)C(C)=C3[C@H](OC(C)=O)[C@H]12 | Non-Toxic |
| 6.3 | CO[C@@]1(C)[C@H]2C[C@H]2[C@]2(C)C[C@@H]3OC(=O)C(C)=C3C[C@@H]21 | Non-Toxic |
|  | CC1=C2C[C@@H]3[C@@](C)(O)[C@H]4C[C@H]4[C@]3(C)C[C@@H]2OC1=O | Non-Toxic |
| 9 | C=C1Cc2occ(C)c2C2C=C(CC[C@H]1O)C(=O)O2 (stereo not given in full) | Non-Toxic |
| 12.8 | CC(=O)O[C@H]1C2=C(C)C(=O)O[C@@]2(O)C[C@@]2(C)[C@@H]3C[C@@H]3[C@](C)(O)[C@@H]12 | Non-Toxic |
| 15.4 | C=C1[C@H]2CC3=C(C)C(=O)O[C@H]3C[C@]2(C)[C@H]2C[C@@H]12 | Non-Toxic |
| > 25 | COC(=O)/C(C)=C1\C(=O)O[C@]2(C)[C@@H]3C[C@@H]3[C@@](C)(CO)[C@H]2[C@@H]1O | Non-Toxic |
| 9.6 | CC1=C2C[C@@H]3[C@@](C)(O)[C@H]4C[C@H]4[C@]3(C)C[C@]2(O)OC1=O | Non-Toxic |

| Compound | IC50 [1] [µM] | Activity [2] |
| --- | --- | --- |
| N=C(N)NN [PIMAGEDINE] | 18.4 |  |
